Among the data in patent US9375005B2, “5-halogenopyrazole indanyl carboxamides” (BAYER CROPSCIENCE AG, priority 2012, dated 2016) are Eff. % and logP values, retold here.

One series relates to Puccinia recondita. In words: In vivo preventive test on Puccinia recondita (brown rust on wheat). To be noted: dose 500 ppm; wheat plants sprayed 24 h before contamination; grading 12 days after contamination. The protocol: Plants, used as controls, are treated with the mixture of acetone/tween/DMSO/water not containing the active material. After 24 hours, the plants are contaminated by spraying the leaves with an aqueous suspension of Puccinia recondita spores (100 000 spores per ml). […] Grading (% of efficacy) is carried out 12 days after the contamination, in comparison with the control plants.

The nature of series [1]: Measurement of log P values by HPLC on reversed phase columns (EEC directive 79/831 Annex V.A8). The format is physicochemical.
The next series deals with Uromyces appendiculatus. In words: In vivo preventive test on Uromyces appendiculatus (bean rust). To be noted: dose 500 ppm; bean plants sprayed 24 h before contamination; grading 11 days after contamination. As to the method:
Bean plants (“Saxa” variety), sown in starter cups on a 50/50 peat soil-pozzolana substrate and grown at 24° C., are treated at the 2-leaf stage (9 cm height) by spraying with the active ingredient prepared as described above. Plants, used as controls, are treated with the mixture of acetone/tween/DMSO/water not containing the active material. After 24 hours, the plants are contaminated by spraying the leaves with an aqueous suspension of Uromyces appendiculatus spores (150 000 spores per ml). […] Grading (% of efficacy) is carried out 11 days after the contamination, in comparison with the control plants.

Setting [2] is: method [a]: LC-MS at pH 2.7, 0.1% formic acid in water / acetonitrile, gradient 10% to 95% acetonitrile.
Where [3] appears, read: method [b]: LC-MS at pH 7.8, 0.001 molar ammonium hydrogen carbonate in water, gradient 10% to 95% acetonitrile.

Consider `CON=C1c2cccc(NC(=O)c3c(C(F)F)nn(C)c3Cl)c2CC1(C)C` (mixture of isomers) [Example 59], for which the Eff. % with Puccinia recondita worked out at 86%.
Consider `CC(C)C1Cc2cccc(N)c2C1C` (mixture of isomers) [III-a-24], for which, in series [1] (setting [2]), the logP was 2.9[a].
Same read-out and setting: to `CCC1Cc2cccc(N)c2C1` (racemic) [III-a-16] belongs 1.76[a]; to `CC(C)CC1CCc2c(N)cccc21` (racemic) [III-a-22], 2.64[a].
Regarding `CC1CC2(CC2)c2cccc(N)c21` (racemic) [III-a-25], in series [1] (setting [2]), the logP was 1.93[a].
On the same count and under the same terms, with `CCC1(C)CCc2c(N)cccc21` (racemic) [III-a-26] the figure was 1.88[a].
The same measure, in the same setting: to `CCCON=C1CC(C)c2c(N)cccc21.Cl` (racemic) [III-a-29] belongs 2.78[a]; to `CCON=C1CC(C)c2c(N)cccc21.Cl` (racemic) [III-a-30], 2.26[a]; to `CON=C1CC(C)c2c(N)cccc21.Cl` (racemic) [III-a-31], 1.76[a].
Take `CC(C)(C)C1CCc2c(N)cccc21` (racemic) [III-a-35]: the logP in series [1] (setting [2]) is 2.4[a].
Still for that read-out and setting: with `CCC1Cc2c(N)cccc2C1(C)C` (racemic) [III-a-40] the figure was 2.47[a].
Still for that read-out and setting: with `CCC1(CC)Cc2c(N)cccc2C1C` (racemic) [III-a-42] the figure was 2.63[a]; with `CC1CC2(CCCC2)c2cccc(N)c21` (racemic) [III-a-43], 2.86[a].
Regarding `CCCON=C1CCc2c(Br)cccc21` (single isomer, unassigned) [III-b-7], the logP in series [1] (setting [2]) was 5.14[a].
Consider `CCON=C1CCc2c(Br)cccc21` (single isomer, unassigned) [III-b-10], for which the logP in series [1] (setting [2]) was 4.49[a].
In the case of `CCCON=C1CCc2c(Br)cccc21` (single isomer, unassigned) [III-b-22], the logP in series [1] (setting [2]) was 5.56[a].
With `CCON=C1CCc2c(Br)cccc21` (single isomer, unassigned) [III-b-23], in series [1] (setting [2]), the logP was 4.9[a].
For `CC1CC2(CC2(Cl)Cl)c2cccc(NC(=O)c3c(C(F)F)nn(C)c3F)c21` (centres unmarked) [Example 1], the logP in series [1] (method marked [a]) is 3.68[a]. The Eff. % with Uromyces appendiculatus is 100%.
Consider `CC1Cc2cccc(NC(=O)c3c(C(F)F)nn(C)c3Cl)c2C1` (centres unmarked) [Example 8], for which the logP in series [1] (method marked [a]) was 3.67[a]. Also, the Eff. % in the series on Uromyces appendiculatus amounted to 100%; with Puccinia recondita, 94%.
In the same order, the values of `CC1Cc2c(NC(=O)c3c(C(F)F)nn(C)c3Br)cccc2C1(C)C` (centres unmarked) [Example 13] are 4.16[a], 79% and 75%.
For the molecule `CC1CC(C)(C)c2c(C3CC3)ccc(NC(=O)c3c(C(F)F)nn(C)c3Cl)c21` (centres unmarked) [Example 16], the logP in series [1] (method marked [a]) is 4.57[a];; in series [1] (method marked [b]) it was 4.57[b]. Also, the Eff. % with Uromyces appendiculatus is listed as 95%; in the series on Puccinia recondita, 94%.
In the same order, the values of `Cc1ccc(NC(=O)c2c(C(F)F)nn(C)c2Cl)c2c1C(C)(C)CC2C` (centres unmarked) [Example 18] are 4.27[a];, 4.2[b], 76% and 78%.
Consider `CON=C1CCc2c(NC(=O)c3c(C(F)F)nn(C)c3Cl)cccc21` [Example 25], for which the logP in series [1] (method marked [a]) was 2.82[a].
As for `CCON=C1CCc2c(NC(=O)c3c(C(F)F)nn(C)c3F)cccc21` [Example 27], in series [1] (method marked [a]), the logP was 3.06[a]. The same molecule yielded an Eff. % in the series on Puccinia recondita of 72%.
In the case of `CON=C1CCc2c(NC(=O)c3c(C(F)F)nn(C)c3F)cccc21` [Example 29], the logP in series [1] (method marked [a]) is 2.59[a]. In the series on Puccinia recondita, this molecule came in with an Eff. % of 98%.
For `CC1CC(C)(C)c2c(Br)ccc(NC(=O)c3c(C(F)F)nn(C)c3F)c21` (centres unmarked) [Example 38], the figures for the logP in series [1] (method marked [a]) and in series [1] (method marked [b]) were 4.45[a]; and 4.35[b], respectively. Further, in the series on Puccinia recondita, the Eff. % was found to be 71%.
Take `CC1CC(C)c2c(NC(=O)c3c(C(F)F)nn(C)c3Cl)cccc21` (centres unmarked) [Example 43]: the values for the Eff. % with Uromyces appendiculatus and in the series with Puccinia recondita were 100% and 98%, respectively.
As for `Cn1nc(C(F)F)c(C(=O)Nc2cccc3c2CC2CCCCC32)c1Cl` (centres unmarked) [Example 54], in series [1] (method marked [a]), the logP is 4.54[a]. Moreover, the figures for the Eff. % in the series with Uromyces appendiculatus and with Puccinia recondita were 100% and 94%, respectively.
For `CON=C1CC(C)c2c(NC(=O)c3c(C(F)F)nn(C)c3F)cccc21` (centres unmarked) [Example 58] the same measures were 2.75[a], 95% and 75%.
For `CC1Cc2c(NC(=O)c3c(C(F)F)nn(C)c3Cl)cccc2C1C` (centres unmarked) [Example 62] the same measures were 3.87[a], 100% and 94%.
Take `CC1c2c(NC(=O)c3c(C(F)F)nn(C)c3Br)cccc2C(C)(C)C1C` (centres unmarked) [Example 65]: the logP in series [1] (method marked [a]) was 4.23[a]. Moreover, the Eff. % in the series with Uromyces appendiculatus is given as 95%; with Puccinia recondita, 94%.
On to `Cn1nc(C(F)F)c(C(=O)Nc2cccc3c2C(C)(C)CC3)c1F` [Example 100], for which the logP in series [1] (method marked [a]) is 3.31[a].
On the same count and under the same terms, to `CCC1(CC)CC(C)c2c(NC(=O)c3c(C(F)F)nn(C)c3Cl)cccc21` (centres unmarked) [Example 112] belongs 4.82[a]; to `CCC1(CC)CC(C)c2c(NC(=O)c3c(C(F)F)nn(C)c3F)cccc21` (centres unmarked) [Example 113], 4.56[a]; to `CCC1(CC)CC(C)c2c(NC(=O)c3c(C(F)F)nn(C)c3Br)cccc21` (centres unmarked) [Example 114], 4.82[a].
On the same count and under the same terms, with `CCC1(C)CC(C)c2c(NC(=O)c3c(C(F)F)nn(C)c3Cl)cccc21` (centres unmarked) [Example 115] the figure was 4.46[a].
Take `CCC1(C)CC(C)c2c(NC(=O)c3c(C(F)F)nn(C)c3F)cccc21` (centres unmarked) [Example 116]: the logP in series [1] (method marked [a]) was 4.16[a].
Still for that read-out and setting: to `CCC1(C)CC(C)c2c(NC(=O)c3c(C(F)F)nn(C)c3Br)cccc21` (centres unmarked) [Example 117] belongs 4.44[a].
As to `CC(C)C1Cc2cccc(N)c2C1` (centres unmarked) [III-a-2], the logP in series [1] (setting [2]) is 2.25[a].
Consider `CC(C)C1Cc2c(N)cccc2C1(C)C` (centres unmarked) [III-a-3], for which the logP in series [1] (setting [2]) was 2.8[a].
With `Nc1cccc2c1CCC21CC1` [III-a-4], the logP in series [1] (setting [2]) was 1.37[a].
Regarding `CC1CC(C)(C)c2c(Cl)ccc(N)c21` (centres unmarked) [III-a-5], in series [1] (setting [2]), the logP was 3.68[a].
Still for that read-out and setting: with `CC1Cc2c(N)cccc2C1(C)C` (centres unmarked) [III-a-6] the figure was 1.95[a].
Regarding `Nc1cccc2c1CC1(CCCC1)C2` [III-a-7], in series [1] (setting [2]), the logP is 2.1[a].
Still for that read-out and setting: to `CC1CC(C)(C)c2c(C3CC3)ccc(N)c21` (centres unmarked) [III-a-8] belongs 2.81[a].
As for `Cc1ccc(N)c2c1C(C)(C)CC2C` (centres unmarked) [III-a-9], the logP is 2.16[a]; in series [1] (setting [2]) and 3.52[b] in series [1] (setting [3]).
Regarding `CC1CC(C)(C)c2c(I)ccc(N)c21` (centres unmarked) [III-a-10], the logP in series [1] (setting [2]) is 4.1[a].
Same read-out and setting: to `CC(C)C1Cc2c(N)cccc2C1C` (centres unmarked) [III-a-11] belongs 2.34[a].
Consider `CCCON=C1CCc2c(N)cccc21.Cl` [III-a-12], for which the logP in series [1] (setting [2]) was 2.26[a].
Same read-out and setting: to `CCCCON=C1CCc2c(N)cccc21.Cl` [III-a-13] belongs 2.86[a]; to `CON=C1CCc2c(N)cccc21.Cl` [III-a-14], 1.26[a]; to `CCON=C1CCc2c(N)cccc21.Cl` [III-a-15], 1.75[a].
Turning to `CC1CC(C(C)C)c2cccc(N)c21` (centres unmarked) [III-a-18], the logP in series [1] (setting [2]) was 2.73[a].
Still for that read-out and setting: with `CC1CC(C(C)C)c2cccc(N)c21` (centres unmarked) [III-a-19] the figure was 2.86[a].
Regarding `CC1CC(C)(C)c2c(Br)ccc(N)c21` (centres unmarked) [III-a-20], the logP in series [1] (setting [2]) was 3.85[a];; in series [1] (setting [3]), 3.95[b].
For the molecule `Nc1cccc2c1CC(Cc1ccccc1)C2` (centres unmarked) [III-a-21], the logP in series [1] (setting [2]) was 2.54[a].
On the same count and under the same terms, to `CC1CC(C)c2c(N)cccc21` (centres unmarked) [III-a-23] belongs 1.76[a].
Turning to `Nc1cccc2c1CC(C1CCCC1)C2` (centres unmarked) [III-a-28], in series [1] (setting [2]), the logP is 2.94[a].
The same measure, in the same setting: to `CON=C1c2cccc(N)c2CC1(C)C.Cl` [III-a-32] belongs 2.08[a]; to `CC1Cc2c(N)cccc2C1C` (centres unmarked) [III-a-33], 1.44[a]; to `CC1c2c(N)cccc2C(C)(C)C1C` (centres unmarked) [III-a-34], 2.28[a].
Still for that read-out and setting: to `CC1CC(CC(C)(C)C)c2cccc(N)c21` (centres unmarked) [III-a-36] belongs 3.83[a]; to `CC(C)CC1CC(C)c2c(N)cccc21` (centres unmarked) [III-a-39], 3.42[a]; to `CC1CC2(CCCCC2)c2cccc(N)c21` (centres unmarked) [III-a-44], 3.35[a].
The same measure, in the same setting: to `CC(C)C1Cc2c(Br)cccc2C1(C)C` (centres unmarked) [III-b-3] belongs 6.7[a]; to `Brc1cccc2c1CCC21CC1` [III-b-4], 4.86[a].
For the molecule `CCCCON=C1CCc2c(Br)cccc21` [III-b-8], the logP in series [1] (setting [2]) was 5.71[a].
Same read-out and setting: to `CC1CC(C(C)C)c2cccc(Br)c21` (centres unmarked) [III-b-13] belongs 5.31[a]; to `CC(C)CC1CCc2c(Br)cccc21` (centres unmarked) [III-b-16], 6.57[a]; to `CC1CC2(CC2)c2cccc(Br)c21` (centres unmarked) [III-b-20], 5.28[a].
Still for that read-out and setting: with `CON=C1CCc2c(Br)cccc21` [III-b-24] the figure was 4.23[a]; with `CCC1Cc2c(Br)cccc2C1(C)C` (centres unmarked) [III-b-29], 6.28[a].
